# Source: patent US20120321579A1, “SURFACTANT COMPOSITIONS” (ANTERIOS, INC., priority 2011, published 2012)
# Test system: Axillary Sweating
# Experiment: Clinical study to evaluate effect of Polysorbate 80 on axillary sweating (gravimetric sweat measurement)
# Assay type: in vivo, human
substance,measurement,setting,value
Polysorbate 80,conclusion on activity in reducing sweat production,conclusion from the clinical study,biologically active in reducing sweat production
same,reduction in sweat production (average) as measured by gravimetric sweat measurement,"two weeks after a single topical treatment, 14.34 mg Polysorbate 80 per axilla (0.3 mL/axilla), subjects with moderate to severe primary axillary hyperhidrosis, 5 minute collection",159 mg
same,"greater reduction in sweat production than the subjects in the control group (placebo, water)","two weeks after a single topical treatment, 14.34 mg per axilla, 159 mg versus 53 mg placebo",300%
same,percent of subjects with at least a 30% reduction in sweat production when compared to levels at the Baseline visit,"two weeks after a single topical treatment, 14.34 mg per axilla, gravimetric sweat measurement",80%
same,greater effectiveness in reducing sweat production than subjects treated with placebo (responder assessment),"two weeks after a single topical treatment, 80% versus 29% of subjects with at least a 30% reduction",280%
